Consider ten compounds from patent publication US11059845B2, “Immune stimulating macrolides” (ISR IMMUNE SYSTEM REGULATION HOLDING AB (PUBL), priority 2017, dated 2021).

By MIC is commonly meant the lowest concentration that inhibits growth of the organism. A low value points to a more susceptible organism.

Type in all cases: cell-based
Assay [1] relates to Bifidobacterium longum subsp. infantis. Description: Minimum Inhibitory Concentration (MIC) assay. To be noted: anaerobic, 37° C., 18 h. Here is the method:
(§1) The bioactivity of macrolide compounds against 4 strains of common gut bacteria (Escherichia coli, Streptococcus salivarius subsp. salivarius, Lactobacillus casei and Bifidobacterium longum subsp. infantis) and common mammalian skin isolate Micrococcus luteus, was assessed using the Minimum Inhibitory Concentration (MIC) assay. Bacterial strains were purchased from DSMZ (Brunswick, Germany) except M. luteus which was obtained from NCIMB, and stored in 20% glycerol at −80° C. Stock solutions (100% DMSO) of positive controls (azithromycin and erythromycin), and of test compounds 1 and 2 were diluted in broth to working stock concentrations of 256 μg/ml (final assay testing concentration range 128 μg/ml to 0.00391 μg/ml). Stock solutions of all other compounds were diluted in broth to working stock concentrations of 128 μg/ml (final assay testing concentration range 64 μg/ml to 0.00195 μg/ml). Bacterial strains were cultivated in appropriate broth in an anaerobic chamber at 37° C., except for M. luteus which was incubated aerobically at 37° C. 18 h cultures were diluted in broth to an OD595 of 0.1 and then further diluted 1:10. In 96-well plates, in duplicate, 200 μl working stock of test compound was transferred to well 1 and serially diluted (1:2) in broth. 100 μl bacterial suspension was aliquoted into each well and mixed thoroughly. Appropriate sterility controls were included and plates were incubated in an anaerobic chamber, or aerobically (M. luteus) at 37° C. for 18 h. The MIC was determined to be the concentration of test compound in the first well with no visible growth.

The test system of the next assay is Escherichia coli. Description: Minimum Inhibitory Concentration (MIC) assay. To be noted: anaerobic, 37° C., 18 h. How it is done: as §1
Another assay deals with Lactobacillus casei. Description: Minimum Inhibitory Concentration (MIC) assay. To be noted: Lacticaseibacillus casei; anaerobic, 37° C., 18 h. Here is the method: as §1
Another assay concerns Micrococcus luteus. Description: Minimum Inhibitory Concentration (MIC) assay. To be noted: aerobic, 37° C., 18 h. How it is done:
as §1

In assay [2] the test system is Streptococcus salivarius subsp. salivarius. Description: Minimum Inhibitory Concentration (MIC) assay. To be noted: anaerobic, 37° C., 18 h. How it is done:
as §1

For assay [3], the system named is E. coli, S. salivarius, L. casei, B. longum or M. luteus. Description: Direct antibacterial activity, summary over all strains tested. To be noted: against the bacterial strains tested (Table 1). Here is the method: as §1
The next assay concerns the target T1, human TLR2 (Homo sapiens, UniProt O60603).
T1 construct: host or cells: recombinant HEK-293-TLR cell lines (hTLR2, NFkB-SEAP reporter)
Description: TLR2 reporter assay (HEK-293-TLR, SEAP). To be noted: for OD after addition of 5 μM test article / OD after addition of 10 μM test article / OD after addition of 20 μM test article: SEAP reporter optical density; for TLR2 stimulation: at concentrations up to 20 uM. Here is the method: Samples and controls were tested in duplicate on recombinant HEK-293-TLR cell lines using a cell reporter assay at Invivogen using their standard assay conditions. These cell lines functionally over-express human TLR2 protein as well as a reporter gene which is a secreted alkaline phosphatase (SEAP). The production of this reporter gene is driven by an NFkB inducible promoter. The TLR reporter cell lines activation results are given as optical density values (OD). 20 μl of each test article were used to stimulate the hTLR2 reporter cell lines in a 200 μl of final reaction volume. Samples were tested in duplicate, with at least two concentrations tested—20 uM and 10 uM.
Compounds were tested using a TLR2 reporter assay (see general methods) that measured for stimulation of the TLR2 receptor. Stimulatory effect was measured as an increase in optical density (OD) due to release of secreted alkaline phosphatase (SEAP) and is shown in table 4: […]
Background: A reporter such as luciferase makes a cellular process visible.

In brackets after ≈: the same amount, converted by molar mass.

T1 sequence (O60603 21-784): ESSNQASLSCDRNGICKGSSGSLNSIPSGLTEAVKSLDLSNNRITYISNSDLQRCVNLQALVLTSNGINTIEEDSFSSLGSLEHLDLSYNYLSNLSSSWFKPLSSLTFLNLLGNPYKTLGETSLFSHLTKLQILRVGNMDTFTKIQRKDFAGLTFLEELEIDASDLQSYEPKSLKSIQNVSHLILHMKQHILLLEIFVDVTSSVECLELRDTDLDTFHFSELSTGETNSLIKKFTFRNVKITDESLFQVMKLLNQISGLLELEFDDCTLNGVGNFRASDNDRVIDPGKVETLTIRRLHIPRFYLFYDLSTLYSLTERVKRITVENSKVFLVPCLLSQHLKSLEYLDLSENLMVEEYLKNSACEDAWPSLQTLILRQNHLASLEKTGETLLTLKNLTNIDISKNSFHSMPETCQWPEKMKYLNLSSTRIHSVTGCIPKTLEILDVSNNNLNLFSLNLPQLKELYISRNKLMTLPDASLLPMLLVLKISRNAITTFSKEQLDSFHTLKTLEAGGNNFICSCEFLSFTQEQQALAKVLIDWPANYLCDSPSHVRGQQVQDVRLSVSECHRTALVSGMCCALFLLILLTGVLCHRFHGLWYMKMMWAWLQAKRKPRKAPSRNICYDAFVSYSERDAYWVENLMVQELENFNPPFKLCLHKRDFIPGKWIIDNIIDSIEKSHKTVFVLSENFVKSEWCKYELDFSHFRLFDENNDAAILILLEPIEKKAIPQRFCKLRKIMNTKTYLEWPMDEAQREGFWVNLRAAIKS

In the case of `CC[C@H]1OC(=O)[C@H](C)[C@@H](O[C@H]2C[C@@](C)(OC)[C@@H](O)[C@H](C)O2)[C@H](C)[C@@H](O[C@@H]2O[C@H](C)C[C@H](N(C)C)[C@H]2O)[C@](C)(O)C[C@@H](C)CN(C)[C@H](C)[C@@H](O)[C@]1(C)O` [Azithromycin, reference compound], the MIC in assay [1] is greater than 64 µg/mL; in the assay on Escherichia coli, less than 8 µg/mL; with Lactobacillus casei, less than 1 µg/mL; in the assay with Micrococcus luteus, 0.125 µg/mL (≈ 0.167 µM); in assay [2], less than 0.5 µg/mL. In addition, the antibacterial activity entry in assay [3] is recorded as “potent activity against a number of the strains”. The “OD after addition of 5 μM test article” value at human TLR2 was 0.029. The “OD after addition of 10 μM test article” value on human TLR2 is recorded as 0.045. Besides, the “OD after addition of 20 μM test article” value at human TLR2 worked out at 0.031. The TLR2 stimulation result at human TLR2 was “little or no stimulation”.
In the case of `CC[C@H]1OC(=O)[C@H](C)[C@@H](O[C@H]2CC(N(C)C)[C@H](O)C(C)O2)[C@H](C)[C@@H](O)[C@](C)(O)C[C@@H](C)C(=O)[C@H](C)[C@@H](O)[C@H]1C` (some centres unmarked) [Compound 3], the antibacterial activity entry in assay [3] is on record as “no antibacterial activity”. On human TLR2, the “OD after addition of 5 μM test article” value was −0.043, the “OD after addition of 10 μM test article” value was −0.015, the “OD after addition of 20 μM test article” value is −0.026 and the TLR2 stimulation entry is listed as “little or no stimulation”.
In the case of `CC[C@H]1OC(=O)[C@H](C)[C@@H](O[C@H]2CC(N(C)C)[C@H](O)C(C)O2)[C@H](C)[C@@H](O)[C@](C)(O)C[C@@H](C)CN(C)[C@H](C)[C@@H](O)[C@H]1C` (some centres unmarked) [Compound 4], the MIC (in assay [1]; with Escherichia coli; with Lactobacillus casei; in assay [2]) was greater than 64 µg/mL each time. The antibacterial activity result in assay [3] is “no antibacterial activity”.
Take `CC1O[C@@H](O[C@H]2[C@H](C)[C@@H](O)[C@](C)(O)C[C@@H](C)C(=O)[C@H](C)[C@@H](O)[C@@H](C)[C@@H](C3CCC3)OC(=O)[C@@H]2C)CC(N(C)C)[C@@H]1O` (some centres unmarked) [Compound 5]: the minimal inhibitory concentration (MIC) (in assay [1]; against Escherichia coli; in the assay with Lactobacillus casei; in assay [2]) was greater than 64 µg/mL throughout. Further, the antibacterial activity entry in assay [3] is reported as “no antibacterial activity”.
Take `CC[C@H]1OC(=O)[C@H](C)[C@@H](O[C@H]2CC(NC)[C@H](O)C(C)O2)[C@H](C)[C@@H](O)[C@](C)(O)C[C@@H](C)C(=O)[C@H](C)[C@@H](O)[C@H]1C` (some centres unmarked) [Compound 6]: the MIC (in assay [1]; against Escherichia coli; in the assay on Lactobacillus casei; in assay [2]) was greater than 64 µg/mL throughout. Further, the antibacterial activity entry in assay [3] is listed as “no antibacterial activity”.
With `CC[C@H]1OC(=O)[C@H](C)[C@@H](O[C@H]2CC(N(C)C)[C@H](O)C(C)O2)[C@H](C)[C@@H](O)[C@](C)(O)C[C@@H](C)C(O)[C@H](C)[C@@H](O)[C@H]1C` (some centres unmarked) [Compound 7], the MIC (in assay [1]; in the assay with Escherichia coli; with Lactobacillus casei; in assay [2]) was greater than 64 µg/mL each time. The antibacterial activity result in assay [3] is on record as “no antibacterial activity”.
Take `CC1O[C@@H](O[C@H]2[C@H](C)[C@@H](O)[C@](C)(O)C[C@@H](C)C(=O)[C@H](C)[C@@H](O)[C@@H](C)[C@@H](C)OC(=O)[C@@H]2C)CC(N(C)C)[C@@H]1O` (some centres unmarked) [Compound 8]: the minimal inhibitory concentration (MIC) (in assay [1]; in the assay on Escherichia coli; against Lactobacillus casei; in assay [2]) was greater than 64 µg/mL in each case. The antibacterial activity entry in assay [3] is “no antibacterial activity”.
In the case of `CC(O)[C@H]1OC(=O)[C@H](C)[C@@H](O[C@H]2C[C@@H](N(C)C)[C@H](O)[C@@H](C)O2)[C@H](C)[C@@H](O)[C@](C)(O)C[C@@H](C)C(=O)[C@H](C)[C@@H](O)[C@H]1C` (some centres unmarked) [Compound 9, 14-hydroxy angolosamine erythronolide B], the minimal inhibitory concentration (MIC) (in assay [1]; against Escherichia coli; in the assay with Lactobacillus casei; in assay [2]) was greater than 64 µg/mL each time. In addition, the antibacterial activity entry in assay [3] was “no antibacterial activity”.
Take `CC[C@H]1OC(=O)[C@H](C)[C@@H](O[C@H]2CC(N(C)C)[C@H](O)C(C)O2)[C@H](C)[C@@H](O)[C@](C)(O)C[C@@H](C)N(C)C[C@H](C)[C@@H](O)[C@]1(C)O` (some centres unmarked) [Compound 17]: at human TLR2, the “OD after addition of 5 μM test article” value was 0.054, the “OD after addition of 10 μM test article” value was determined as 0.155 and the “OD after addition of 20 μM test article” value amounted to 0.234. The “concentrations at which TLR2 was stimulated (down to)” value at human TLR2 (lowest stimulating concentration tested) is no less than 10 µM.
Consider `CC[C@H]1OC(=O)[C@H](C)[C@@H](O[C@H]2C[C@@](C)(OC)[C@@H](O)[C@H](C)O2)[C@H](C)[C@@H](O[C@@H]2O[C@H](C)C[C@H](N(C)C)[C@H]2O)[C@](C)(O)C[C@@H](C)C(=O)[C@H](C)[C@@H](O)[C@]1(C)O` [Erythromycin, reference compound], for which the minimal inhibitory concentration (MIC) in assay [1] is greater than 64 µg/mL; against Escherichia coli it was greater than 64 µg/mL; in the assay with Lactobacillus casei, less than 0.25 µg/mL; in the assay with Micrococcus luteus it was less than 0.0625 µg/mL; in assay [2] it was less than 0.06 µg/mL. Moreover, the antibacterial activity entry in assay [3] was “potent activity against a number of the strains”. Besides, the “OD after addition of 5 μM test article” value at human TLR2 was found to be 0.035. Further, at human TLR2, the “OD after addition of 10 μM test article” value is 0.065. The “OD after addition of 20 μM test article” value on human TLR2 was found to be 0.045. The TLR2 stimulation result at human TLR2 is on record as “little or no stimulation”.
